One compound from patent publication US20080139581A1 (priority 2005, published 2008) can be followed below.

Consider `CCCCCCCCc1c(CC)nc2nc(Cl)nn2c1N`, for which the melting point (usually the temperature of the solid-liquid transition) was 202 to 203 °C.
